Consider five compounds from patent publication US8394971B2, “Indole derivatives as selective androgen receptor modulators (SARMS)” (Janssen Pharmaceutica N.V., priority 2004, dated 2013).

Where two headings read alike, the source gives them in different places.

The target in experiment [1] is T1, androgen receptor (adenovirus AdEasy+rAR in COS-7 cells) (Rattus norvegicus, UniProt P15207).
T1 construct: expressed in transfected cells
T1 sequence (P15207 1-902): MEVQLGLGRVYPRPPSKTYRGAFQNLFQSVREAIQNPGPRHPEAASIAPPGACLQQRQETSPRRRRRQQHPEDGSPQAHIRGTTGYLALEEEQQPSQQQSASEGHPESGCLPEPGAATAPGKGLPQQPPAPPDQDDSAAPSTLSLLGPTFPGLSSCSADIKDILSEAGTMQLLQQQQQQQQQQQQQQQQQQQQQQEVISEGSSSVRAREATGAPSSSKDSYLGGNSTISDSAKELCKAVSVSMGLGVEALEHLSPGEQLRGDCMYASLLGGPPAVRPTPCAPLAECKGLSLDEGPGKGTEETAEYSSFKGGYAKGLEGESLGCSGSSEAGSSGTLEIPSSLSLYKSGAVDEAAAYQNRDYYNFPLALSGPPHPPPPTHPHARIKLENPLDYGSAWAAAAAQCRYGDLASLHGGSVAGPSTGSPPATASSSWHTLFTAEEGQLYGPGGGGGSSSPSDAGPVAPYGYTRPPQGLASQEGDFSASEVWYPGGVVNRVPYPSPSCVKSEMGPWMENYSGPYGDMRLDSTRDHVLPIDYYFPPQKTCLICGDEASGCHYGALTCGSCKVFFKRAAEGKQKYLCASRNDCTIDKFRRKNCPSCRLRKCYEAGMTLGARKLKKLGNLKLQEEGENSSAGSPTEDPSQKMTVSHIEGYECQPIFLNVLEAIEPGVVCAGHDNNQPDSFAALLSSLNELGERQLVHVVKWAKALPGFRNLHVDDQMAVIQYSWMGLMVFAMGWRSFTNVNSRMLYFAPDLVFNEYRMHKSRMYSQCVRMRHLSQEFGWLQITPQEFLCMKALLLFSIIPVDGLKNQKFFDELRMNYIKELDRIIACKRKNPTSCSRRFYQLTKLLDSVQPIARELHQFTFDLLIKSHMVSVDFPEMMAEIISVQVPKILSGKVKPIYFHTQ
In words: COS-7 Whole-Cell Androgen Receptor Binding Assay, Adenovirus Transduction. The following applies: for IC50: read-out: IC50.

The target of experiment [2] is T2, androgen receptor (adenovirus AdEasy+rAR in L929 cells) (Rattus norvegicus, UniProt P15207).
T2 construct: expressed in transfected cells
T2 sequence (P15207 1-902): T1 sequence (P15207 1-902)
The experiment in a line: L929 Androgen Receptor Functional Assay, Adenovirus Transduction. The following applies: 3000 nM; for % Activity: L929 agonist testing; for % Inhibition: L929 antagonist testing with R1881. It counts as cell-based. In outline:
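L929 cells in phenol red-free, charcoal-stripped serum medium transduced with AdEasy+rAR (moi 1:500) and exposed 48 h at 37 °C to compound alone (agonist mode) or with R1881 (antagonist mode; 2.5 nM as the 2.5× dilution).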

The mark [3] stands for this setting: COS binding, 3000 nM unless otherwise noted.

For `CC(O)(C[S+]([O-])Cc1ccccc1)c1cc2cc([N+](=O)[O-])c(C(F)(F)F)cc2[nH]1` (mixture of isomers) [compound 161], in experiment [1] (setting [3]), the “% Inhibition” value amounted to 20%. The “% Activity” value in experiment [2] was 2%.

With `CSCCC(C)(O)c1cc2cc([N+](=O)[O-])c(C(F)(F)F)cc2[nH]1` (racemic) [compound 47], the “% Inhibition” value in experiment [1] is reported as 78%. Further, the 50% inhibitory concentration (IC50) in experiment [1] (COS binding) was > 1000 nM. Further, in experiment [2], the “% Activity” value came out at 2% and the “% Inhibition” value is listed as 75%.

Regarding `COc1ccc(S(=O)(=O)CC(C)(O)c2cc3cc(Cl)c(C(F)(F)F)cc3[nH]2)cc1` (racemic) [compound 129], the “% Inhibition” value in experiment [1] (setting [3]) is on record as 10%. Moreover, in experiment [2], the “% Activity” value is −5% and the “% Inhibition” value is −8%.

For `COc1ccc(SCC(C)(O)c2cc3cc(Cl)c(C(F)(F)F)cc3n2S(C)(=O)=O)cc1` (racemic) [compound 130], in experiment [1] (setting [3]), the “% Inhibition” value is given as −8%. Moreover, in experiment [2], the “% Activity” value is on record as −5%.

For `CC(C)CSCC(C)(O)c1cc2cc([N+](=O)[O-])c(C(F)(F)F)cc2[nH]1` (racemic) [compound 170], the “% Inhibition” value in experiment [1] amounted to 67%. In addition, in experiment [1] (COS binding), the IC50 was > 3000 nM. In experiment [2], the “% Activity” value is reported as 2% and the “% Inhibition” value worked out at 67%.

As a reminder, the % Inhibition is the drop in the measured response relative to a control, in per cent. The IC50 is the concentration needed to halve the response being measured.
